Measurements published in patent US6642271B2, “Potentiating compounds” (Ardenia Investments, Ltd., priority 2001, dated 2003).
Several values for one entry are separate records, joined by “and”; a condition that tells them apart may be missing. Equal values may be shown once.

Experiments:
[1] = system: human breast adenocarcinoma MDA-MB-231 cell line; assay: Cytotoxicity: cell growth inhibition in cultures, viable cells counted by trypan blue exclusion; assay type: cell-based; conditions: for inhibition at 0.04 µM / inhibition at 1 µM / inhibition at 0.1 µM / inhibition at 0.01 µM / inhibition at 0.001 µM / inhibition at 0.0001 µM / inhibition at 10 pM: Homo sapiens; for Cell growth inhibition % Formulation: compound/paclitaxel formulations in saline; for Cell growth inhibition % OF W/SAB / Cell growth inhibition % OF SAB/W: dried compound/paclitaxel mixed-micellar system (OF); for Cell growth inhibition % OF W/SAB: freeze-dried as water solution, reconstituted with 0.05 M sodium acetate buffer; for Cell growth inhibition % OF SAB/W: freeze-dried in 0.05 M sodium acetate buffer, reconstituted with water
Method: The cell line was propagated by cultivation in Nunclon 25 cm^2 flasks (Nunc A/S, Denmark) in Minimum Essential Medium Eagle (MEM), containing antibiotics and supplemented with 10% (v/v) fetal bovine serum (FBS) (Sigma, St. Louis, Mo., USA). The cultures were maintained in growth medium at 37° C. in a humidified atmosphere, 95% air and 5% CO2.
A suspension of tumour cells (60×10^3 cells/mL) was prepared in MEM with 5% FBS and antibiotics. Cell suspension (200 μL) was seeded in wells of Nunclon 96-microwell plates (Nunc A/S, Denmark) at a density of 12×10^3 cell/well. The solutions of the drugs to be tested were added to the cultures on day 0 or day 1 in volumes of 2 μL. In all cases the cells were incubated for 3 days.
At the end of the incubation period, adherent cells were detached by trypsinization and the number of viable cells was counted using trypan blue dye exclusion test and a hemocytometer.
All experiments were performed at least twice and the cells counts were done in triplicate for each drug concentration. Each control and test series consisted of 6-8 cultures. The results are expressed as mean cell number ±SD and the differences between control and test series were evaluated by means of Student's t-test. The cytotoxicity of each tested drug was evaluated by the extent of cell growth inhibition. The Cell growth inhibition was evaluated as follows:
Cell growth inhibition, %=- - - ×100

[2] = Solubility of compounds and formulations; assay type: physicochemical; conditions: for solubility in solvents: sodium salts
Method: The obtained solution can be stored for at least three months at low temperatures, without noticeable change in the properties of compound (I-VI). Moreover, the formulation retains its cytotoxic effects during prolonged storage. Before use, the solution is evaporated in vacuo to yield a waxy solid which is dissolved in saline or other commonly used vehicle for intravenous infusion to a patient. […] An ethanol solution is prepared of one of N-(all-trans-Retinoyl)-L-cysteic acid (I), N-(13-cis-Retinoyl)-L-cysteic acid (11), N-(all-trans-Retinoyl)-L-homocysteic acid (III), N-(13-cis-Retinoyl)-L-homocysteic acid (IV), N-(all-trans-Retinoyl)-L-cysteinesulfinic acid (V), or N-(13-cis-Retinoyl)-L-cysteinesulfinic acid (VI). The obtained solution is evaporated in vacuo to give waxy solid, whereupon Taxol® is added, dissolving the waxy solid. […]

[3] = MDA-MB-231, sodium salt in saline, final 4 × 10^−8 mol/L, day 1, three days
[4] = MDA-MB-231, sodium salt in saline, final 10^−6 mol/L (top of range 10^−11 M to 10^−6 M), day 1, three days
[5] = MDA-MB-231, sodium salt in saline, final 10^−7 mol/L, day 1, three days
[6] = MDA-MB-231, sodium salt in saline, final 10^−8 mol/L, day 1, three days
[7] = MDA-MB-231, sodium salt in saline, final 10^−9 mol/L, day 1, three days
[8] = MDA-MB-231, sodium salt in saline, final 10^−10 mol/L, day 1, three days
[9] = MDA-MB-231, sodium salt of the compound dissolved in saline (1 mg/ml), final concentration 10^−11 mol/L, day 1, three days
[10] = sodium salt in saline, final 4 × 10^−8 mol/L, day 1, three days
[11] = sodium salt in saline, final 10^−6 mol/L (top of range 10^−11 M to 10^−6 M), day 1, three days
[12] = sodium salt in saline, final 10^−6 mol/L, day 1, three days
[13] = sodium salt in saline, final 10^−7 mol/L, day 1, three days
[14] = sodium salt in saline, final 10^−8 mol/L, day 1, three days
[15] = sodium salt in saline, final 10^−9 mol/L, day 1, three days
[16] = sodium salt in saline, final 10^−10 mol/L, day 1, three days
[17] = sodium salt of the compound dissolved in saline (1 mg/ml), final concentration 10^−11 mol/L, day 1, three days
[18] = initial saline solution 0.005 mg/mL, final 40 nM in cultures, added day 1, three days of cultivation
[19] = initial saline solution 0.5 mg/mL, final 40 nM, day 1, three days
[20] = initial saline solution 1.0 mg/mL, final 40 nM, day 1, three days
[21] = initial saline solution 5.0 mg/mL, final 40 nM, day 1, three days

With `CC(=O)O[C@H]1C(=O)[C@@]2(C)[C@H]([C@H](OC(=O)c3ccccc3)[C@]3(O)C[C@H](OC(=O)[C@H](O)[C@@H](NC(=O)c4ccccc4)c4ccccc4)C(C)=C1C3(C)C)[C@]1(OC(C)=O)CO[C@@H]1C[C@@H]2O` [Paclitaxel, reference compound] the “number of living cells” value ([1]; 8 × 10^−9 mol/L of paclitaxel (formulation: plus 4 × 10^−8 mol/L of compound, molar ratio 1:5), added day 0, three days) was 15.5 ± 1.63 × 10^3 and 26.3 ± 1.96 × 10^3, the cell growth inhibition ([1]; at concentrations close to the IC50 concentration) was ~46% and the cell growth inhibition ([1]; drug alone, 10 nM paclitaxel, added day 1, three days of cultivation, positive control of molar-ratio experiments) was 46.1% and 44.3%.

In the case of `CC1=C(/C=C/C(C)=C/C=C/C(C)=C\C(=O)N[C@@H](CS(=O)O)C(=O)O)C(C)(C)CCC1` [Compound VI, N-(13-cis-Retinoyl)-L-cysteinesulfinic acid], the inhibition at 0.04 µM [1, 3] is reported as 24.9%, the inhibition at 1 µM [1, 4] is reported as 27.3% and the inhibition at 0.1 µM [1, 5] is reported as 25.8%. The inhibition at 0.01 µM [1, 6] was 22.4%, the inhibition at 0.001 µM [1, 7] was 14% and the inhibition at 0.0001 µM [1, 8] was 13.7%. For the same compound, the inhibition at 10 pM [1, 9] was 12.3%, the “Cell growth inhibition % Formulation” value [1] was “close to 55%” and the “Cell growth inhibition % OF W/SAB” value [1] was “close to 56%”. The “Cell growth inhibition % OF SAB/W” value [1] was “close to 58%”, the “number of living cells” value [1, 10] was 39.6 ± 2.70 × 10^3 and the cell growth inhibition [1, 11] was ~30%. The “number of living cells” value [1, 12] was 38.3 ± 2.34 × 10^3, the “number of living cells” value [1, 13] was 39.1 ± 2.16 × 10^3 and the “number of living cells” value [1, 14] was 40.9 ± 2.88 × 10^3. The “number of living cells” value [1, 15] was 45.3 ± 2.55 × 10^3, the “number of living cells” value [1, 16] was 45.5 ± 2.68 × 10^3 and the “number of living cells” value [1, 17] was 46.2 ± 3.54 × 10^3. The “solubility in the commercially available Taxol® preparation” value [2] was “excellent solubility” and the solubility in solvents [2] was “soluble only in mixtures containing water”.

Work on `CC1=C(/C=C/C(C)=C/C=C/C(C)=C/C(=O)N[C@@H](CCS(=O)(=O)O)C(=O)O)C(C)(C)CCC1` [Compound III, N-(all-trans-Retinoyl)-L-homocysteic acid] yielded an inhibition at 0.04 µM [1, 3] of 32.8%, an inhibition at 1 µM [1, 4] of 36.1% and an inhibition at 0.1 µM [1, 5] of 34.4%. It also gave an inhibition at 0.01 µM [1, 6] of 25.8%, an inhibition at 0.001 µM [1, 7] of 19.7% and an inhibition at 0.0001 µM [1, 8] of 15.5%. The inhibition at 10 pM [1, 9] was 16.9%, the “Cell growth inhibition % Formulation” value [1] was “close to 60%” and the “Cell growth inhibition % OF W/SAB” value [1] was “close to 62%”. The “Cell growth inhibition % OF SAB/W” value [1] was “close to 63%”, the “number of living cells” value [1, 10] was 36.5 ± 2.08 × 10^3 and the cell growth inhibition [1, 11] was ~35%. For the same compound, the “number of living cells” value [1, 12] was 34.7 ± 1.52 × 10^3, the “number of living cells” value [1, 13] was 35.6 ± 1.68 × 10^3 and the “number of living cells” value [1, 14] was 40.3 ± 3.36 × 10^3. For the same compound, the “number of living cells” value [1, 15] was 43.6 ± 2.57 × 10^3, the “number of living cells” value [1, 16] was 45.9 ± 2.84 × 10^3 and the “number of living cells” value [1, 17] was 45.1 ± 3.51 × 10^3. The “solubility in the commercially available Taxol® preparation” value [2] was “excellent solubility” and the solubility in solvents [2] was “also dissolved in methanol and some methanol containing mixtures”.

For `CC1=C(/C=C/C(C)=C/C=C/C(C)=C\C(=O)N[C@@H](CS(=O)(=O)O)C(=O)O)C(C)(C)CCC1` [Compound II, N-(13-cis-Retinoyl)-L-cysteic acid], the inhibition at 0.04 µM ([1]; MDA-MB-231, compound alone 4 × 10^−8 mol/L (40 nM), added day 0, three days) was 35.3%, the inhibition at 0.04 µM ([1]; MDA-MB-231, dry substance, stock 1 mg/ml in saline, final 4 × 10^−8 mol/L, day 1, three days) was 36.8% and the inhibition at 1 µM ([1]; MDA-MB-231, dry substance, stock 1 mg/ml in saline, final 10^−6 mol/L, day 1, three days) was 41.9%. The inhibition at 0.1 µM ([1]; MDA-MB-231, dry substance, stock 1 mg/ml in saline, final 10^−7 mol/L, day 1, three days) was 38.4%, the inhibition at 0.01 µM ([1]; MDA-MB-231, dry substance, stock 1 mg/ml in saline, final 10^−8 mol/L, day 1, three days) was 27.5% and the inhibition at 0.001 µM ([1]; MDA-MB-231, dry substance, stock 1 mg/ml in saline, final 10^−9 mol/L, day 1, three days) was 21.5%. The inhibition at 0.0001 µM ([1]; MDA-MB-231, dry substance, stock 1 mg/ml in saline, final 10^−10 mol/L, day 1, three days) was 17.8%, the inhibition at 10 pM ([1]; MDA-MB-231, dry substance, stock 1 mg/ml in saline, final concentration 10^−11 mol/L, day 1, three days) was 28.9% and the inhibition at 0.04 µM [1, 3] was 46.8%. The inhibition at 1 µM [1, 4] was 51.6%, the inhibition at 0.1 µM [1, 5] was 46% and the inhibition at 0.01 µM [1, 6] was 46.5%. It also gave an inhibition at 0.001 µM [1, 7] of 41.2%, an inhibition at 0.0001 µM [1, 8] of 35.1% and an inhibition at 10 pM [1, 9] of 27.9%. The cell growth inhibition ([1]; compound alone 4 × 10^−8 mol/L (40 nM), added day 0, three days, 0.04 µM) was ~40%, the “number of living cells” value ([1]; compound alone 4 × 10^−8 mol/L, added day 0, three days) was 29.9 ± 2.38 × 10^3 and the “Cell growth inhibition % Formulation” value [1] was “close to 75%”. The “Cell growth inhibition % OF W/SAB” value [1] was “close to 71%”, the “Cell growth inhibition % OF SAB/W” value [1] was “close to 72%” and the “number of living cells” value ([1]; dry substance, stock 1 mg/ml in saline, final 4 × 10^−8 mol/L, day 1, three days) was 32.6 ± 2.52 × 10^3. For the same compound, the “number of living cells” value ([1]; dry substance, stock 1 mg/ml in saline, final 10^−6 mol/L, day 1, three days) was 30.0 ± 2.14 × 10^3, the “number of living cells” value ([1]; dry substance, stock 1 mg/ml in saline, final 10^−7 mol/L, day 1, three days) was 31.8 ± 2.05 × 10^3 and the “number of living cells” value ([1]; dry substance, stock 1 mg/ml in saline, final 10^−8 mol/L, day 1, three days) was 37.4 ± 3.86 × 10^3. For the same compound, the “number of living cells” value ([1]; dry substance, stock 1 mg/ml in saline, final 10^−9 mol/L, day 1, three days) was 40.5 ± 2.11 × 10^3, the “number of living cells” value ([1]; dry substance, stock 1 mg/ml in saline, final 10^−10 mol/L, day 1, three days) was 42.4 ± 1.93 × 10^3 and the “number of living cells” value ([1]; dry substance, stock 1 mg/ml in saline, final concentration 10^−11 mol/L, day 1, three days) was 36.7 ± 3.65 × 10^3. For the same compound, the cell growth inhibition [1, 18] was 32.6%, the “number of living cells” value [1, 18] was 34.8 ± 3.27 × 10^3 and the “number of living cells” value ([1]; initial saline solution 0.05 mg/mL, final 40 nM, day 1, three days) was 33.4 ± 2.91 × 10^3. The cell growth inhibition [1, 19] was 35.9%, the “number of living cells” value [1, 19] was 33.1 ± 3.01 × 10^3 and the cell growth inhibition [1, 20] was 37.6%. For the same compound, the “number of living cells” value [1, 20] was 32.2 ± 2.14 × 10^3, the cell growth inhibition [1, 21] was 29.3% and the “number of living cells” value [1, 21] was 36.5 ± 3.88 × 10^3. For the same compound, the “number of living cells” value [1, 10] was 31.2 ± 2.33 × 10^3, the cell growth inhibition [1, 11] was ~50% and the “number of living cells” value [1, 12] was 28.4 ± 1.02 × 10^3. For the same compound, the “number of living cells” value [1, 13] was 31.7 ± 1.54 × 10^3, the “number of living cells” value [1, 14] was 31.4 ± 1.62 × 10^3 and the “number of living cells” value [1, 15] was 34.5 ± 1.94 × 10^3. The “number of living cells” value [1, 16] was 38.1 ± 1.18 × 10^3, the “number of living cells” value [1, 17] was 42.3 ± 2.32 × 10^3 and the “solubility in the commercially available Taxol® preparation” value [2] was “excellent solubility”. For the same compound, the solubility in solvents [2] was “soluble only in mixtures containing water”.
